Test systems include EKVX; SW-620; MDA-MB-231; OVCAR-5; BT-549; LOX IMVI; NCI-H23; HCT-15; KM12; UACC-257; SK-MEL-5; SN12C; MDA-N; 786-0; NCI-H522; Malme-3M; IGROV-1; MDA-MB-435; M14; UACC-62.
Holding throughout (assay): DTP human tumour cell line panel, 48 h

These results are taken from ChEMBL document CHEMBL1201862, “PubChem BioAssay data set” (2004).

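96-well plates; 48 h exposure; 5 concentrations. Endpoints by linear interpolation between flanking doses. Not reached: highest tested concentration assigned. Here, GI50 denotes the concentration required for 50% inhibition of growth.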 Calls of active or inactive are those of the source. No stated cut-off is given here; in the data, active = GI50 up to about 1.1 µM and inactive = higher.

Usually GI50 stands for the concentration at which growth is held to half of that of the control. For the compound `CN(C)CCNc1nc2ccccc2c2c1C(=O)c1ccccc1-2`, the GI50 in the assay with EKVX was 361 nM (active); with SW-620, 137 nM (active); in the assay with MDA-MB-231 it was 542 nM (active); in the assay on OVCAR-5, 367 nM (active); in the assay with BT-549, 914 nM (active); with LOX IMVI, 147 nM (active). Also, the GI50 in the assay on NCI-H23 is 316 nM (active); with HCT-15, 150 nM; in the assay with KM12, 326 nM (active); in the assay on UACC-257 it was 538 nM (active); in the assay on SK-MEL-5, 301 nM (active); in the assay on SN12C, 56.5 nM (active). Further, the GI50 in the assay on MDA-N is 318 nM (active); with 786-0 it was 132 nM (active); in the assay with NCI-H522 it was 211 nM (active); in the assay with Malme-3M, 251 nM (active); in the assay with IGROV-1 it was 94.2 nM (active); in the assay on MDA-MB-435 it was 288 nM (active). Moreover, the GI50 was 316 nM (active) in the assay on M14 and 84.9 nM (active) with UACC-62.

Take `COc1ccc2c(c1)N(CCC1CCCCN1C)c1ccccc1S2` (stereo not given) [OXYRIDAZINE]: the GI50 in the assay on EKVX was 19400 nM (inactive); with SW-620 it was 14700 nM (inactive); in the assay on MDA-MB-231 it was 11000 nM (inactive); with OVCAR-5, 15200 nM (inactive); in the assay with BT-549, 16100 nM (inactive); with LOX IMVI, 9570 nM (inactive). For the same compound, the GI50 is 17100 nM (inactive) in the assay on NCI-H23; 13400 nM with HCT-15; 10800 nM (inactive) with KM12; 5080 nM (inactive) in the assay with UACC-257; 10800 nM (inactive) in the assay on SK-MEL-5; 13400 nM (inactive) with SN12C. For the same compound, the GI50 with MDA-N is 12000 nM (inactive); in the assay with 786-0, 13100 nM (inactive); in the assay on NCI-H522, 13100 nM (inactive); in the assay with Malme-3M it was 18200 nM (inactive); in the assay with IGROV-1, 12500 nM (inactive); with MDA-MB-435 it was 7620 nM (inactive). The results for the GI50 in the assay on M14 and in the assay on UACC-62 were 3130 nM (inactive) and 12600 nM (inactive), respectively.
